The values below are quoted from earlier work in patent US20250213514A1, “STABLE, LIQUID PHARMACEUTICAL COMPOSITIONS COMPRISING MELPHALAN” (GOOD HEALTH, LLC, priority 2022, published 2025).

Where two headings read alike, the source gives them in different places.

In the case of `N[C@@H](Cc1ccc(N(CCCl)CCCl)cc1)C(=O)O` [Melphalan], the Solubility result is “slightly soluble” (in ethanol, methanol); “soluble” (in propylene glycol and dilute mineral acids); “practically insoluble” (in water, chloroform, and ether).
